In BindingDB's records for doi:10.1021/acs.biochem.7b00178 (University of Waterloo, 2017) one finds Ki data, which are given here for four compounds.

Structures are written as SMILES.

For assay [1], the target named is Phosphoenolpyruvate carboxykinase, cytosolic [GTP] [H477R] (Rat, UniProt P07379, H477R). In words: PEPCK Inhibition Assay. Here is the method:
(§1) The inhibition of H477R PEPCK by β-sulfopyruvate (βSP), oxalate, and GMPPCP was conducted in the direction of PEP synthesis (OAA → PEP). The Michaelis constant of OAA was determined at various fixed concentrations of β-SP (0−100 μM) or oxalate (0−1000 μM), and the Michaelis constant for GTP was determined at various fixed concentrations of GMPPCP (0-800 μM).

Assay [2] concerns the target T1, Phosphoenolpyruvate carboxykinase, cytosolic [GTP] (Rattus norvegicus, UniProt P07379).
T1 sequence (P07379 whole entry): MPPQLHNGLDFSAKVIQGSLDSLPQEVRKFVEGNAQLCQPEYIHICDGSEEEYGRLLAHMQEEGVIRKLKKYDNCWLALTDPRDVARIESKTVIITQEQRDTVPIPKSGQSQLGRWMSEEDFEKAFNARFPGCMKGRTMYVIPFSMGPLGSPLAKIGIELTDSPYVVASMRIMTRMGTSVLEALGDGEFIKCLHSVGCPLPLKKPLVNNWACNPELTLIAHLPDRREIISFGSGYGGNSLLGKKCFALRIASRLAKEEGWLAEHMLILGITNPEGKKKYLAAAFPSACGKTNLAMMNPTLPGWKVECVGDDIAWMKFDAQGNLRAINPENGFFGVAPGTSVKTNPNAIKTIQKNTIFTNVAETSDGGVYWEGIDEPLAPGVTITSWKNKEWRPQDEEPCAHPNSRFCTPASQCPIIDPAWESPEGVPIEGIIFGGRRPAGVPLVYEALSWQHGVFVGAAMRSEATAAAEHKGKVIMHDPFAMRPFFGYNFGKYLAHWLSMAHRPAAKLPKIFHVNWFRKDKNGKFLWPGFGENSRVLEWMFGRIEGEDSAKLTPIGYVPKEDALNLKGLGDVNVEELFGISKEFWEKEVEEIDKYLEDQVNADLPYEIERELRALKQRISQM
In words: PEPCK Inhibition Assay. Here is the method: as §1

Chain of Phosphoenolpyruvate carboxykinase, cytosolic [GTP] [H477R] (P07379 whole entry H477R): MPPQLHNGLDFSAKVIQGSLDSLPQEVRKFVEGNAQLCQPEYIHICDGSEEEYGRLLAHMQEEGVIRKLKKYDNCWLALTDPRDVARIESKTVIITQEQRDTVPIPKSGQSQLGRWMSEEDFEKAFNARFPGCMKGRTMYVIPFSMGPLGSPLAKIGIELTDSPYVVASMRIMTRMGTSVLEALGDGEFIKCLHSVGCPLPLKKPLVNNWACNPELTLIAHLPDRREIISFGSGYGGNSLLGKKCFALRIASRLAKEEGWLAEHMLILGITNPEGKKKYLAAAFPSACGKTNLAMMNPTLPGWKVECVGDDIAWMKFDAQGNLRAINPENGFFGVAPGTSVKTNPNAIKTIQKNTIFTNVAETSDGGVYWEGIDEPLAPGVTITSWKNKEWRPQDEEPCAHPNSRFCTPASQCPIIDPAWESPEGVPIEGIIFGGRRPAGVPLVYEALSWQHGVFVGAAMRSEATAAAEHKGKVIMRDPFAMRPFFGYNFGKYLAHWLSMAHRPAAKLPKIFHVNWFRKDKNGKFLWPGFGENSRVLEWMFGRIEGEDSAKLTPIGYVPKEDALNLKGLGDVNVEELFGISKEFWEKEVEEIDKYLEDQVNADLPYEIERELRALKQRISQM

Regarding `O=C(O)C(=O)CS(=O)(=O)O` [β-Sulfopyruvate], the Ki (usually a dissociation constant, usually derived from enzyme kinetics or from competition with a known ligand) in assay [1] was 37 µM. In the case of `Nc1nc(O)c2ncn([C@@H]3O[C@H](COP(=O)(O)OP(=O)(O)C[P+]([O-])(O)O)[C@@H](O)[C@H]3O)c2n1` [β,γ-methyleneguanosine 5′-triphosphate], the Ki was found to be 150 µM in assay [2] and 696 µM in assay [1]. `O=C(O)CC(=O)C(=O)O` [keto-Oxaloacetate]: in assay [1], the inhibitory constant (Ki) amounted to 441 µM. Consider `C=C(OP(=O)(O)O)C(=O)O` [PHOSPHOENOLPYRUVATE], for which the inhibition constant Ki in assay [1] turned out to be 289 µM.
